Experimental data: US9625448B2, “Double caged GABA compounds, bis-CNB-GABA” (The Trustees of Princeton University, priority 2014, dated 2017)
Values joined by “and” are separate entries in the source; they are usually repeats but may differ in a detail not shown here. Identical values can stand only once. Like-named read-outs stand apart in the source and are kept apart here.

What was measured:
[1] = 1994, cited from earlier work
physchem = format: physicochemical; details: for rate of spontaneous photoproduct / GABA production: aqueous buffer, 23° C., 12 mM, pH 7.4, fluorescent room lights, first 8 days
Procedure: The hydrolytic stability of bis-CNB-GABA under normal handling conditions was examined. Accordingly, we prepared samples of bis-CNB-GABA and mono-O-CNB-GABA were prepared in aqueous buffer (23° C., 12 mM, pH=7.4), stored the samples under fluorescent room lights, and determined accumulation of deprotected GABA at 1-day intervals.
FIGS. 44A-44B illustrate accumulation of GABA in ambient room light. FIG. 44A illustrates 1H NMR data used to quantify GABA accumulation. Top, bis-CNB-GABA before light exposure. Arrows denote methylene peaks of bis-CNB-GABA. Peaks at ˜3.45 ppm and ˜3.2 ppm in each spectrum correspond to dimethoxyethane, used as an internal standard. Bottom, The teal overlay indicates the post-photolysis spectrum of bis-CNB-GABA after 17 days of exposure to ambient fluorescent light. Arrows denote the two visible peaks corresponding to a combination of GABA and mono-N-CNB-GABA photoproducts. Note the lack of extraneous peaks in the 0-4 ppm range after light exposure. The dominant final photoproduct of bis-CNB-GABA was GABA, as identified using ^1H NMR. FIG. 44A illustrates 1H NMR data used to quantify GABA accumulation. Referring to this figure (top), bis-CNB-GABA before light exposure. Arrows denote methylene peaks of bis-CNB-GABA. Still referring to FIG. 44A, peaks at ˜3.45 ppm and ˜3.2 ppm in each spectrum correspond to dimethoxyethane, used as an internal standard. Still referring to FIG. 44A (bottom), the teal overlay indicates the post-photolysis spectrum of bis-CNB-GABA after 17 days of exposure to ambient fluorescent light. Arrows denote the two visible peaks corresponding to a combination of GABA and mono-N-CNB-GABA photoproducts. The lack of extraneous peaks in the 0-4 ppm range was observed after light exposure. The combined amount of mono-decaging (N-CNB-GABA) and double-decaging (GABA) photoproduct was quantified using the integrated multiplet at 2.15 ppm, with dimethoxyethane (singlet peaks at 3.20 and 3.45 ppm) as a standard.

cerebellar interneurons = experiment: Whole-cell holding current under voltage clamp in cerebellar interneurons exposed to caged GABA; format: cell-based
Text: FIGS. 43A-43E illustrate quantification of unwanted effects of caged GABA. Referring to FIGS. 43A-43E, first, changes in whole-cell holding current under voltage clamp were monitored while caged GABA compounds were applied by bath application or by local perfusion as per Civillico, E. F.; Shoham, S.; O'Connor, D. H.; Sarkisov, D. V.; Wang, S. S.-H. Cold Spring Harb. Protoc. 2012, which is incorporated herein by reference as if fully set forth). FIG. 43A illustrates voltage-clamp recordings from cerebellar interneurons exposed to caged GABA. Referring to this figure, upper trace corresponds to 1 mM bis-CNB-GABA; middle trace corresponds to 0.1 mM mono-O-CNB-GABA; bottom trace corresponds to 1 mM DPNI-GABA. Referring to FIG. 43A, (right) expanded traces illustrating the detailed effects on steady-state holding current and fluctuations in holding current were observed. FIG. 43B illustrates effects of caged GABA on spontaneous IPSCs and excitatory postsynaptic currents (EPSCs). Referring to FIG. 43B, IPSCs and EPSCs were identified and separated based on kinetic criteria. FIG. 43B (left) illustrates box plots of spontaneous postsynaptic current amplitudes in control conditions and in the presence of 1 mM bis-CNB-GABA. Referring to FIG. 43B (left), boxes show interquartile range and whiskers show full range of values. FIG. 43B (right) illustrates individual traces (gray) and average (block) of detected spontaneous IPSCs and EPSCs. FIG. 43C illustrates dependence of spontaneous IPSC amplitude on bis-CNB-GABA concentration. […]
Referring to FIG. 43D, in contrast, application of bis-CNB-GABA (raw product, 0.4 to 2.0 mM) evoked no detectable change in the holding current (ratio of holding current drug/control=1.0±0.3, n=14, p=0.7, Mann-Whitney test) or in its standard deviation, which is a measure of steady-state channel noise (from 3.0±0.5 to 3.2±0.8 pA, n=14, p=0.3) measured during periods of no spontaneous currents. […]

GABAA receptors = experiment: Spontaneous IPSC / miniature GABA current amplitude, whole-cell patch recording from cerebellar molecular layer interneurons; format: cell-based
Procedure: Bis-CNB-GABA was applied in vitro. Currents were recorded from cerebellar interneurons. […] FIG. 35 (right) illustrates response traces before and after application of bis-CNB-GABA. FIG. 35 (left) illustrates summary of data. FIG. 36 illustrates effects of 1 mM bis-CNB-GABA on spontaneously evoked miniature glutamate and miniature GABA currents in cerebellar interneuron.
The biological properties of our synthetic bis-CNB-GABA were evaluated using whole-cell patch recording from cerebellar molecular layer interneurons.
FIGS. 43A-43E illustrate quantification of unwanted effects of caged GABA. Referring to FIGS. 43A-43E, first, changes in whole-cell holding current under voltage clamp were monitored while caged GABA compounds were applied by bath application or by local perfusion as per Civillico, E. F.; Shoham, S.; O'Connor, D. H.; Sarkisov, D. V.; Wang, S. S.-H. Cold Spring Harb. Protoc. 2012, which is incorporated herein by reference as if fully set forth). FIG. 43A illustrates voltage-clamp recordings from cerebellar interneurons exposed to caged GABA. Referring to this figure, upper trace corresponds to 1 mM bis-CNB-GABA; middle trace corresponds to 0.1 mM mono-O-CNB-GABA; bottom trace corresponds to 1 mM DPNI-GABA. Referring to FIG. 43A, (right) expanded traces illustrating the detailed effects on steady-state holding current and fluctuations in holding current were observed. FIG. 43B illustrates effects of caged GABA on spontaneous IPSCs and excitatory postsynaptic currents (EPSCs). Referring to FIG. 43B, IPSCs and EPSCs were identified and separated based on kinetic criteria. FIG. 43B (left) illustrates box plots of spontaneous postsynaptic current amplitudes in control conditions and in the presence of 1 mM bis-CNB-GABA. Referring to FIG. 43B (left), boxes show interquartile range and whiskers show full range of values. FIG. 43B (right) illustrates individual traces (gray) and average (block) of detected spontaneous IPSCs and EPSCs. FIG. 43C illustrates dependence of spontaneous IPSC amplitude on bis-CNB-GABA concentration. […] FIG. 43D illustrates comparison of effects of mono-O-CNB-GABA (0.1 mM) and bis-CNB-GABA (1.0 mM, except for 0.4 mM for IPSCs) on spontaneous IPSC amplitude, standard deviation of holding current (noise), and holding current (Ihold). FIG. 43E illustrates spontaneous EPSC size was unaffected by bis-CNB-GABA at all concentrations tested. Referring to FIGS. 43A and 43D, under these conditions, mono-O-CNB-GABA (0.1 mM) led to increases of 66±47 pA (mean±SD, n=6) in inward holding current at −60 mV (Ihold). This inward current presumably arises either via indirectly evoked increases in excitation or from direct activation of GABAA receptors (by residual free GABA in the caged compound solution or by mono-O-CNB-GABA, which may itself have partial agonist activity). See Dellal., S. S.; Luo, R.; Otis, T. S. J. Neurophysiol., 2012, 107, 2958-2970, which is incorporated herein by reference as if fully set forth.
Referring to FIG. 43B, the effects of bis-CNB-GABA on spontaneous IPSCs was next measured. […] Referring to FIG. 43B, in contrast, addition of bis-CNB-GABA served to reduce GABA current amplitudes by approximately one-third (FIG. 43B, top; 0.4 to 2.0 mM; ratio of amplitudes during drug/control: 0.68±0.17, n=14). […] This IC50 is, in fact, a lower bound; the material tested was crude product, which may contain minute amounts of mono-CNB-GABA.

[2] = cited from earlier work

## O=C(CCCNC(C(=O)O)c1ccccc1[N+](=O)[O-])OC(C(=O)O)c1ccccc1[N+](=O)[O-] (stereo not shown) [bis-CNB-GABA, 2-((4-(Carboxy(2-nitrophenyl)methoxy)-4-oxobutyl)amino)-2-(2-nitrophenyl)acetic acid]
[1]; N-position, Wieboldt et al.
  dark reaction time: 1.5 ms
physchem
  rate of spontaneous photoproduct / GABA production: 1.5±0.1 %/day
physchem; buffer, pH 7.4
  half-life at 12 mM: 98 days
physchem; during a week in the light
  accumulation of GABA: less than 1%
  estimated production of N-CNB-GABA: 10%
Cerebellar interneurons; 0.4 to 2.0 mM, control 3.0±0.5 pA, n=14
  standard deviation of holding current (steady-state channel noise): 3.2±0.8 pA
Cerebellar interneurons; raw product, 0.4 to 2.0 mM, n=14
  ratio of holding current drug/control: 1.0±0.3
GABAA receptors
  concentration generating 33% reduction in response: 1 mM
GABAA receptors; 1 mM
  effects on holding current, IPSCs, or EPSCs: minimal or no effects
GABAA receptors; 1 mM, cerebellar interneuron
  decrease in miniature GABA response amplitude / reduction of GABA currents: ~33%
GABAA receptors; 0.4 to 2.0 mM, n=14
  ratio of GABA current (spontaneous IPSC) amplitudes during drug/control: 0.68±0.17
GABAA receptors; FIG. 43C, read-out: KD of fit, dependence of spontaneous IPSC amplitude on concentration
  Kd: 2500 ± 200 µM
GABAA receptors; Table 1, calculated from q=[j]/[j]+IC50, read-out: IC50
  IC50: 2000 µM
GABAA receptors; Table 1, calculated, q=0.33
  IC33: 1.0
GABAA receptors; Table 2, the data herein, read-out: IC50 in blocking synaptic GABAA currents
  IC50: ≥ 2500 µM
GABAA receptors; during bis-CNB-GABA application, control 0.44±0.13 ms
  10-90% rise time of IPSCs: 0.44±0.11 ms
GABAA receptors; read-out: estimated IC50 from concentration-dependence of the reduction of spontaneous IPSC amplitude, crude product, stated to be a lower bound
  IC50: ≥ 2500 µM
GABAA receptors; submillimolar concentrations
  antagonist activity at submillimolar concentrations: virtually no antagonist activity
GABAA receptors; vs CDNI-GABA
  fold less antagonistic binding compared to CDNI-GABA: 4 fold
GABAA receptors; vs DPNI-GABA
  fold less antagonism compared to DPNI-GABA: 4 fold
GABAA receptors; vs mono-CNB-GABA
  fold lower affinity / reduction of antagonism compared to mono-caged analog: 70 fold and 100 fold

## NCCCC(=O)OC(C(=O)O)c1ccccc1[N+](=O)[O-] (stereo not shown) [mono-CNB-GABA]
[1]; Gee et al.
  uncaging speed: microsecond range
physchem
  rate of spontaneous photoproduct / GABA production: 1.0±0.2 %/day
physchem; buffer, pH 7.4
  extrapolated half-life t1/2: 138 days
Cerebellar interneurons; 0.1 mM, mean±SD, n=6
  increase in inward holding current at −60 mV (Ihold): 66±47 pA
GABAA receptors; 1 mM
  effect on rate of spontaneous IPSCs: dramatic decrease
[2]; from Invitrogen
  known quantum yield (QY) of standard: 0.16
[2]; literature values
  quantum yield: 0.14
